Experiments:
[1] = target: T1, protein phosphatase-2A1 (Homo sapiens, UniProt P67775); assay: Assay of purified protein phosphatase-2A1 in vitro with 32P-labeled phosphorylase a as substrate; type: biochemical; set-up: Protein phosphatase-2A1 purified from CD^4+ T cells as described in materials and method; endogenous in cells; host or cells: Jurkat cells; enzyme purified by DEAE Sepharose, Sephacryl S-300 HR and poly-L-lysine Agarose; details: highly purified enzyme from Jurkat cells
Experimental: Protein phosphatase-2A1 purified from CD^4+ T cells as described in materials and method was assayed in the presence of various concentrations of SYRAPRO-2000. 100 percent protein phosphatase-2A1 activity is equivalent to 0.005 unit. Similar result were obtained in 3 independent experiments.
The effect of synthesized SYRAPRO-2000 on purified protein phosphatase-2A1 can be determined in vitro. Protein phosphatase-2A1 can be assayed using ^32P-labeled phosphorylase a as substrate in the presence of various concentrations of SYRAPRO-2000. Protein phosphatase-2A1 is activated in the presence of SYRAPRO-2000.
Protein phosphatase-1 was assayed as described in (Cohen 1988). Protein phosphatase-2B was assayed as described in (Tung 1986). Protein phosphatase-2C was assayed as described in (Tung 1986) except Ca^2+ and calmodulin were omitted. The assay of protein phosphatases-2A1 consisted of 0.02 ml of enzyme solution in 50 mM Imidazole-Cl pH 7.2, 0.2 mM EGTA, 0.1% (v/v) 2-mercaptoethanol and 1 mg/ml bovine serum albumin (Assay Buffer), 0.01 ml of inhibitor-2 at 600 nM in Assay Buffer, 0.01 ml of protamine at 60 μg/ml in Assay Buffer or 0.01 ml of SYRAPRO-2000 at different concentrations in Assay Buffer or 0.01 ml of Assay Buffer alone, 0.02 ml of ^32P-labeled phosphorylase a at 3 mg/ml in Assay Buffer containing 15 mM caffeine. The assay components were preincubated for 10 minutes prior to initiating the reaction with ^32P-labeled phosphorylase a. One unit of protein phosphatase activity is that amount of enzyme which catalyzes the release of 1 nmol of phosphate from ^32P-labeled substrate per min at 30° C.
Jurkat cells, a human transformed CD^4+ T cell line, were grown in grown in RPMI 1680 supplemented with 5% (v/v) fetal bovine serum at 37° C. in 95% air/5% CO2 in a humidified incubator. 2.4 liters of cells were collected by centrifugation at 4200 rpm in a low speed centrifuge for 10 minutes. The cells were homogenized in 80 ml of 50 mM Imidazole-Cl pH 7.2, 2 mM EGTA, 2 mM EDTA, 0.1% (v/v) 2-mercaptoethanol, 0.2 mM PMSF, 1 mM benzamidine, 4 μg/ml aprotinin, 4 μg/ml leupeptin, 4 μg/ml pepstatin, 0.1 mM TLCK, 0.1 mM TPCK, 1 mM sodium orthovanadate and 10% (v/v) glycerol by 40 strokes in a glass hand held homogenizer. The homogenate was centrifuged at 29000 rpm in a high speed centrifuge for 30 minutes. The supernatant (i.e the extract) was collected and loaded onto a DEAE Sepharose column (1.5×6 cm) equilibrated in 25 mM Imidazole-Cl pH 7.2, 0.2 mM EGTA, 0.1% (v/v) 2-mercaptoethanol, 0.1 mM PMSF, 1 mM benzamidine and 10% (v/v) glycerol (Buffer A). The column was washed with 50 ml of Buffer and then eluted with a 200 ml linear gradient of Buffer A to Buffer A plus 0.4 M NaCl. The eluted fractions were then assayed for phosphorylase phosphatase activity in the presence of 100 nM inhibitor-2 and 10 μg/ml of protamine. Two major peaks of phosphorylase phosphatase were observed. The first and second peak represent protein phosphatase-2A0 and protein phosphatase-2A1 respectively. […] The major activity eluting as a species of apparent molecular mass 300 kDa was collected, diluted four fold in Buffer A and loaded onto a poly-L-lysine Agarose Column (1.5×4 cm) equilibrated in Buffer A. The column was washed with 50 ml of Buffer A and then eluted with a 200 ml linear gradient of Buffer A to Buffer A plus 0.5 M NaCl. The active fractions eluting at ˜0.30 M NaCl salt concentration was pooled, concentrated by vacuum dialysis and stored at ^−20° C. in 50 mM Imidazole-Cl pH 7.2, 0.2 mM EGTA in the presence of 50% (v/v) glycerol. The highly purified enzyme consisted of the characteristic subunits of protein phosphatase-2A1, namely the A, B and C subunits. […] It is difficult to determine the activity of protein phosphatase-2A1 in CD^4+ T cell extract. However, assuming that it represented about 66 percent of total type 2A protein phosphatase activity in CD^4+ T cell extract, the specific activity of the enzyme in extract was estimated to be 0.3 unit/mg. […]

[2] = target: T1, protein phosphatase-2A1; details: Tung 1997; Janoo 2005; cited from earlier work

Question: With `C=C1[C@@H](O)[C@@H]2O[C@]3(CC[C@H](/C=C/[C@@H](C)[C@@H]4CC(C)=C[C@@]5(O[C@H](C[C@@](C)(O)C(=O)O)CC[C@H]5O)O4)O3)CC[C@H]2O[C@@H]1[C@@H](O)C[C@H](C)[C@H]1O[C@@]2(CCCCO2)CC[C@H]1C` [okadaic acid, reference compound] as the molecule, how does the “effect on protein phosphatase-2A1 from CD4+ T cells” value (“effect on protein phosphatase-2A1” below) [1] read?
Answer: Its value is “inhibited”.

Question: Which “activation of protein phosphatase-2A1” value [2] does the source give for “full length HIV-1 Vpr: full length HIV-1 Vpr protein, tested in the literature” here?
Answer: Its value is “not to activate”.

Question: Which “effect on protein phosphatase-2A1” value [1] does the source give for protamine [reference compound] here?
Answer: Its value is “activated”.

B1: inhibitor-2: Protein phosphatase-1 inhibitor-2 purified from rabbit skeletal muscle (protein, UniProt P11845 2-205, looked up)
Protein phosphatase inhibitor …: AASTASHRPIKGILKNKTSSTSSRVASAEQPRGSVDEELSKKSQKWDEMNILATYHPADKDYGLMKIDEPSTPYHSMIGDDDDAYSDTETTEAMTPDTLAKKLAAAEGSEPKYRIREQESSGEEDSDLSPEEREKKRQFEMKRKLHYNEGLNIKLARQLISKDLHDDEEDEEMSETADGESMNTEESNQGSTPSDQRQNKSQSS
Question: Which “effect on protein phosphatase-2A1” value [1] does the source give for B1 here?
Answer: Its value is “not inhibited”.

Source: patent publication US20060252683A1, “Preparation of a peptide compound (SYRAPRO-2000) and its use for the activation of protein phosphatase-2A1 enzyme” (priority 2005, published 2006)
